Measurements from ChEMBL document CHEMBL1127069 (J Med Chem, 1993).

What was measured:
Format in all cases: functional
[1] = target: Vanilloid receptor (Rattus norvegicus, UniProt Q9ERZ8+Q9WUD2+O35433); experiment: Effective concentration for [Ca2+] uptake into dorsal root ganglia neurones in rat cultured spinal sensory neurones
[2] = tested on: Mus musculus; experiment: In vivo analgesic dose in mouse tail flick latency model
[3] = species: Cavia porcellus; experiment: In vitro effective dose for contraction of guinea pig ileum

SMILES	EC50 [1] [µM]	ED50 [2] [µmol/kg]	EC50 [3] [nM]
CCCCCCCCNC(=O)/C=C/c1ccc(O)c(OC)c1	> 100		
CCCCCCCC/N=C(/NC#N)NCc1ccc(O)c(OC)c1	3.28	> 50	6350
CCCCCCCCC(=O)N(C)Cc1ccc(O)c(OC)c1	> 100		
CCCCCCCCSC(=O)Cc1ccc(O)c(OC)c1	1.17		
CCCCCCCCC(=O)NCc1ccc(O)c(OC)c1 [NONIVAMIDE]		5	
CCCCCCCCNC(=O)CCc1ccc(O)c(OC)c1	2.32		
CCCCCCCCNC(=O)C(O)c1ccc(O)c(OC)c1 (stereo unspecified)	1.16		
CCCCCCCCC(=O)CCc1ccc(O)c(OC)c1	2.13		
CCCCCCCCS(=O)(=O)NCc1ccc(O)c(OC)c1	1.32	> 50	2900
CCCCCCCCNC(=O)c1ccc(O)c(OC)c1	> 100		
CCCCCCCCN/C(NCc1ccc(O)c(OC)c1)=[S+]\C.[I-]	> 100		
CCCCCCCC/N=C(\S)NCc1ccc(O)c(OC)c1		3.2	
CCCCCCCCCCCc1ccc(O)c(OC)c1	> 100		
CCCCCCCC/N=C(/S)Nc1ccc(O)c(OC)c1	2.57	> 50	2560
CCCCCCCCOC(=O)Cc1ccc(O)c(OC)c1	0.67		
CCCCCCCCN(C)C(=O)Cc1ccc(O)c(OC)c1	6.29		
COc1cc(CNC(=O)CCCC/C=C/C(C)C)ccc1O [CAPSAICIN]		15	
CCCCCCCCC(=O)NC(=S)NCc1ccc(O)c(OC)c1	> 100		
CCCCCCCCC(=O)/C=C/c1ccc(O)c(OC)c1	> 100		
CCCCCCCCC(=O)Nc1ccc(O)c(OC)c1	4.48	> 50	1170
CCCCCCCCN/C(=C\[N+](=O)[O-])NCc1ccc(O)c(OC)c1	> 100		
CCCCCCCCN(C)/C(S)=N/Cc1ccc(O)c(OC)c1	0.53		
CCCCCCCCC(=O)OCc1ccc(O)c(OC)c1	14.2		
CCCCCCCC/C(S)=N\Cc1ccc(O)c(OC)c1	0.28	38	1230
CCCCCCCCNC(=O)NCc1ccc(O)c(OC)c1	0.36		
CCCCCCCC/N=C(/S)N(C)Cc1ccc(O)c(OC)c1	> 100		
CCCCCCCCCC(=O)Cc1ccc(O)c(OC)c1	3.78		
CCCCCCCCNC(=O)Cc1ccc(O)c(OC)c1	0.3	9.2	
CCCCCCCCNC(=O)/C=C\c1ccc(O)c(OC)c1	17.9		
CCCCCCCCC(=O)NCCc1ccc(O)c(OC)c1	18.3		
